Assay results from US20200032271A1, “COMBINATION THERAPY WITH LIPOSOMAL ANTISENSE OLIGONUCLEOTIDES” (Bio-Path Holdings, Inc., priority 2016, published 2020).
[PEt] = P-ethoxy (ethyl phosphotriester) internucleoside linkage

Assay: Adverse events in study 2003-0578 (NCI CTCAE grading)
Excerpt: Each participant who receives study drug will be closely monitored for AEs. An AE is any untoward medical occurrence associated with the use of a drug in humans, whether or not considered drug related. Adverse events include any signs, symptoms, illnesses, or diagnoses that appear or worsen during the course of the study. An AE may be an intercurrent illness, an injury, or any concomitant impairment of the participant's health. All AEs occurring at any time from the time of consent through the end of treatment visit will be reported regardless of the etiology of the event. The NCI's CTCAE v4.03 will be used for grading AEs.
The causal relationship to BP1001 IP or Das for all AEs will be assessed as follows: (1) definitely related—AEs clearly attributable to study regimen administration; (2) probably related—AEs for which there is a reasonable possibility of causal association to study regimen; (3) possibly related—AEs for which there is confounding by comorbidities, medications or other considerations but for which it is not unreasonable that the AE may have been caused by study regimen; or (4) not related—AEs that are considered clearly not causally related to study regimen, or for which there is a clear alternative explanation

BP1001: liposome-incorporated P-ethoxy antisense oligodeoxynucleotide (5′-ATATTTGGCGATGGCTTC-3′, SEQ ID NO: 1) specific to grb2 mRNA, in neutral DOPC liposomes (DNA, all [PEt], methylation of C not given here; incorporated in neutral DOPC liposomes)
4: Patients with AEs ≥Grade 3, number of patients (monotherapy 10 mg/m^2 (n = 6))
1: Hypoxia ≥Grade 3, number of patients (monotherapy 10 mg/m^2 (n = 6)) | Multi-organ failure ≥Grade 3, number of patients (monotherapy 10 mg/m^2 (n = 6)) | Neoplasms benign, malignant, and unspecified (incl. cysts and polyps) ≥Grade 3, number of patients (monotherapy 10 mg/m^2 (n = 6)) | Respiratory failure ≥Grade 3, number of patients (monotherapy 10 mg/m^2 (n = 6)) | AML progression, number of patients (monotherapy 20 mg/m^2 (n = 3)) | Blood and lymphatic system disorders ≥Grade 3, number of patients (monotherapy 20 mg/m^2 (n = 3)) | Leukocytosis ≥Grade 3, number of patients (monotherapy 20 mg/m^2 (n = 3)) | Patients with AEs ≥Grade 3, number of patients (monotherapy 20 mg/m^2 (n = 3)) | Acute kidney injury ≥Grade 3, number of patients (monotherapy 40 mg/m^2 (n = 3)) | Blood and lymphatic system disorders ≥Grade 3, number of patients (monotherapy 40 mg/m^2 (n = 3)) | Dyspnea ≥Grade 3, number of patients (monotherapy 40 mg/m^2 (n = 3)) | Hypokalemia ≥Grade 3, number of patients (monotherapy 40 mg/m^2 (n = 3)) | Leukocytosis ≥Grade 3, number of patients (monotherapy 40 mg/m^2 (n = 3)) | Metabolism and nutritional disorders ≥Grade 3, number of patients (monotherapy 40 mg/m^2 (n = 3)) | Renal and urinary disorders ≥Grade 3, number of patients (monotherapy 40 mg/m^2 (n = 3)) | Respiratory, thoracic, and mediastinal disorders ≥Grade 3, number of patients (monotherapy 40 mg/m^2 (n = 3))
3: Metabolism and nutritional disorders ≥Grade 3, number of patients (monotherapy 10 mg/m^2 (n = 6)) | Respiratory, thoracic, and mediastinal disorders ≥Grade 3, number of patients (monotherapy 10 mg/m^2 (n = 6)) | AML progression, number of patients (monotherapy 40 mg/m^2 (n = 3)) | Patients with AEs ≥Grade 3, number of patients (monotherapy 40 mg/m^2 (n = 3)) | AML progression, number of patients (monotherapy 60 mg/m^2 (n = 3))
0: Hypovolemia ≥Grade 3, number of patients (monotherapy 10 mg/m^2 (n = 6)) | Investigations ≥Grade 3, number of patients (monotherapy 10 mg/m^2 (n = 6)) | Penile Pain ≥Grade 3, number of patients (monotherapy 10 mg/m^2 (n = 6)) | Platelet count decreased ≥Grade 3, number of patients (monotherapy 10 mg/m^2 (n = 6)) | Psychiatric disorders ≥Grade 3, number of patients (monotherapy 10 mg/m^2 (n = 6)) | Renal and urinary disorders ≥Grade 3, number of patients (monotherapy 10 mg/m^2 (n = 6)) | Reproductive system and breast disorders ≥Grade 3, number of patients (monotherapy 10 mg/m^2 (n = 6)) | Tumor lysis syndrome ≥Grade 3, number of patients (monotherapy 10 mg/m^2 (n = 6)) | Vascular disorders ≥Grade 3, number of patients (monotherapy 10 mg/m^2 (n = 6)) | Abdominal Pain ≥Grade 3, number of patients (monotherapy 20 mg/m^2 (n = 3)) | Acidosis ≥Grade 3, number of patients (monotherapy 20 mg/m^2 (n = 3)) | Acute kidney injury ≥Grade 3, number of patients (monotherapy 20 mg/m^2 (n = 3)) | Asthenia ≥Grade 3, number of patients (monotherapy 20 mg/m^2 (n = 3)) | Back Pain ≥Grade 3, number of patients (monotherapy 20 mg/m^2 (n = 3)) | Cardiac disorders ≥Grade 3, number of patients (monotherapy 20 mg/m^2 (n = 3)) | Cataract ≥Grade 3, number of patients (monotherapy 20 mg/m^2 (n = 3)) | Dyspnea ≥Grade 3, number of patients (monotherapy 20 mg/m^2 (n = 3)) | Extremity Lower Edema ≥Grade 3, number of patients (monotherapy 20 mg/m^2 (n = 3)) | Eye disorders ≥Grade 3, number of patients (monotherapy 20 mg/m^2 (n = 3)) | Febrile neutropenia ≥Grade 3, number of patients (monotherapy 20 mg/m^2 (n = 3)) | Gastrointestinal disorders ≥Grade 3, number of patients (monotherapy 20 mg/m^2 (n = 3)) | General disorders and administration site conditions ≥Grade 3, number of patients (monotherapy 20 mg/m^2 (n = 3)) | Hallucinations ≥Grade 3, number of patients (monotherapy 20 mg/m^2 (n = 3)) | Heart failure ≥Grade 3, number of patients (monotherapy 20 mg/m^2 (n = 3)) | Hepatic failure ≥Grade 3, number of patients (monotherapy 20 mg/m^2 (n = 3)) | Hepatobiliary disorders ≥Grade 3, number of patients (monotherapy 20 mg/m^2 (n = 3)) | Hypocalcemia ≥Grade 3, number of patients (monotherapy 20 mg/m^2 (n = 3)) | Hypoglycemia ≥Grade 3, number of patients (monotherapy 20 mg/m^2 (n = 3)) | Hypokalemia ≥Grade 3, number of patients (monotherapy 20 mg/m^2 (n = 3)) | Hyponatremia ≥Grade 3, number of patients (monotherapy 20 mg/m^2 (n = 3)) | Hypotension ≥Grade 3, number of patients (monotherapy 20 mg/m^2 (n = 3)) | Hypovolemia ≥Grade 3, number of patients (monotherapy 20 mg/m^2 (n = 3)) | Hypoxia ≥Grade 3, number of patients (monotherapy 20 mg/m^2 (n = 3)) | Investigations ≥Grade 3, number of patients (monotherapy 20 mg/m^2 (n = 3)) | Metabolism and nutritional disorders ≥Grade 3, number of patients (monotherapy 20 mg/m^2 (n = 3)) | Multi-organ failure ≥Grade 3, number of patients (monotherapy 20 mg/m^2 (n = 3)) | Musculoskeletal and connective tissue disorders ≥Grade 3, number of patients (monotherapy 20 mg/m^2 (n = 3)) | Neoplasms benign, malignant, and unspecified (incl. cysts and polyps) ≥Grade 3, number of patients (monotherapy 20 mg/m^2 (n = 3)) | Penile Pain ≥Grade 3, number of patients (monotherapy 20 mg/m^2 (n = 3)) | Platelet count decreased ≥Grade 3, number of patients (monotherapy 20 mg/m^2 (n = 3)) | Pneumonia ≥Grade 3, number of patients (monotherapy 20 mg/m^2 (n = 3)) | Psychiatric disorders ≥Grade 3, number of patients (monotherapy 20 mg/m^2 (n = 3)) | Renal and urinary disorders ≥Grade 3, number of patients (monotherapy 20 mg/m^2 (n = 3)) | Reproductive system and breast disorders ≥Grade 3, number of patients (monotherapy 20 mg/m^2 (n = 3)) | Respiratory distress ≥Grade 3, number of patients (monotherapy 20 mg/m^2 (n = 3)) | Respiratory failure ≥Grade 3, number of patients (monotherapy 20 mg/m^2 (n = 3)) | Respiratory, thoracic, and mediastinal disorders ≥Grade 3, number of patients (monotherapy 20 mg/m^2 (n = 3)) | Tumor lysis syndrome ≥Grade 3, number of patients (monotherapy 20 mg/m^2 (n = 3)) | Vascular disorders ≥Grade 3, number of patients (monotherapy 20 mg/m^2 (n = 3)) | Abdominal Pain ≥Grade 3, number of patients (monotherapy 40 mg/m^2 (n = 3)) | Acidosis ≥Grade 3, number of patients (monotherapy 40 mg/m^2 (n = 3)) | Asthenia ≥Grade 3, number of patients (monotherapy 40 mg/m^2 (n = 3)) | Back Pain ≥Grade 3, number of patients (monotherapy 40 mg/m^2 (n = 3)) | Cardiac disorders ≥Grade 3, number of patients (monotherapy 40 mg/m^2 (n = 3)) | Cataract ≥Grade 3, number of patients (monotherapy 40 mg/m^2 (n = 3)) | Extremity Lower Edema ≥Grade 3, number of patients (monotherapy 40 mg/m^2 (n = 3)) | Eye disorders ≥Grade 3, number of patients (monotherapy 40 mg/m^2 (n = 3)) | Febrile neutropenia ≥Grade 3, number of patients (monotherapy 40 mg/m^2 (n = 3)) | Gastrointestinal disorders ≥Grade 3, number of patients (monotherapy 40 mg/m^2 (n = 3)) | General disorders and administration site conditions ≥Grade 3, number of patients (monotherapy 40 mg/m^2 (n = 3)) | Hallucinations ≥Grade 3, number of patients (monotherapy 40 mg/m^2 (n = 3)) | Heart failure ≥Grade 3, number of patients (monotherapy 40 mg/m^2 (n = 3)) | Hepatic failure ≥Grade 3, number of patients (monotherapy 40 mg/m^2 (n = 3)) | Hepatobiliary disorders ≥Grade 3, number of patients (monotherapy 40 mg/m^2 (n = 3)) | Hypocalcemia ≥Grade 3, number of patients (monotherapy 40 mg/m^2 (n = 3)) | Hypoglycemia ≥Grade 3, number of patients (monotherapy 40 mg/m^2 (n = 3)) | Hyponatremia ≥Grade 3, number of patients (monotherapy 40 mg/m^2 (n = 3)) | Hypotension ≥Grade 3, number of patients (monotherapy 40 mg/m^2 (n = 3)) | Hypovolemia ≥Grade 3, number of patients (monotherapy 40 mg/m^2 (n = 3)) | Hypoxia ≥Grade 3, number of patients (monotherapy 40 mg/m^2 (n = 3)) | Investigations ≥Grade 3, number of patients (monotherapy 40 mg/m^2 (n = 3)) | Multi-organ failure ≥Grade 3, number of patients (monotherapy 40 mg/m^2 (n = 3)) | Musculoskeletal and connective tissue disorders ≥Grade 3, number of patients (monotherapy 40 mg/m^2 (n = 3)) | Neoplasms benign, malignant, and unspecified (incl. cysts and polyps) ≥Grade 3, number of patients (monotherapy 40 mg/m^2 (n = 3)) | Penile Pain ≥Grade 3, number of patients (monotherapy 40 mg/m^2 (n = 3)) | Platelet count decreased ≥Grade 3, number of patients (monotherapy 40 mg/m^2 (n = 3)) | Pneumonia ≥Grade 3, number of patients (monotherapy 40 mg/m^2 (n = 3)) | Psychiatric disorders ≥Grade 3, number of patients (monotherapy 40 mg/m^2 (n = 3)) | Reproductive system and breast disorders ≥Grade 3, number of patients (monotherapy 40 mg/m^2 (n = 3)) | Respiratory distress ≥Grade 3, number of patients (monotherapy 40 mg/m^2 (n = 3)) | Respiratory failure ≥Grade 3, number of patients (monotherapy 40 mg/m^2 (n = 3)) | Tumor lysis syndrome ≥Grade 3, number of patients (monotherapy 40 mg/m^2 (n = 3)) | Vascular disorders ≥Grade 3, number of patients (monotherapy 40 mg/m^2 (n = 3)) | Abdominal Pain ≥Grade 3, number of patients (monotherapy 60 mg/m^2 (n = 3)) | Acidosis ≥Grade 3, number of patients (monotherapy 60 mg/m^2 (n = 3)) | Acute kidney injury ≥Grade 3, number of patients (monotherapy 60 mg/m^2 (n = 3)) | Asthenia ≥Grade 3, number of patients (monotherapy 60 mg/m^2 (n = 3)) | Back Pain ≥Grade 3, number of patients (monotherapy 60 mg/m^2 (n = 3))
2: Leukocytosis ≥Grade 3, number of patients (monotherapy 10 mg/m^2 (n = 6)) | Pneumonia ≥Grade 3, number of patients (monotherapy 10 mg/m^2 (n = 6)) | Respiratory distress ≥Grade 3, number of patients (monotherapy 10 mg/m^2 (n = 6))
